According to ChEMBL document CHEMBL3856228, “Design and Synthesis of Pyridone-Containing 3,4-Dihydroisoquinoline-1(2H)-ones as a Novel Class of Enhancer of Zeste Homolog 2 (EZH2) Inhibitors” (J Med Chem, 2016):
In brackets after ≈: the same amount, converted by molar mass. Activity calls are given as the source filed them. The calls are words filed in the database; no cut-off is given here.

Columns and labels:
[1] = target: T1, Histone-lysine N-methyltransferase EZH2 (Homo sapiens, UniProt O75530+Q09028+Q15022+Q15910); experiment: Inhibition of wild-type EZH2 (unknown origin) expressed in baculovirus infected SF9 cells co-expressing SUZ12/EED/RbAp48 complex using HeLa cells derived oligonucleosomes as substrate after 60 mins in presence of [3H] SAM by scintillation counting
T1 sequence (Q15910 whole entry, one chain of several): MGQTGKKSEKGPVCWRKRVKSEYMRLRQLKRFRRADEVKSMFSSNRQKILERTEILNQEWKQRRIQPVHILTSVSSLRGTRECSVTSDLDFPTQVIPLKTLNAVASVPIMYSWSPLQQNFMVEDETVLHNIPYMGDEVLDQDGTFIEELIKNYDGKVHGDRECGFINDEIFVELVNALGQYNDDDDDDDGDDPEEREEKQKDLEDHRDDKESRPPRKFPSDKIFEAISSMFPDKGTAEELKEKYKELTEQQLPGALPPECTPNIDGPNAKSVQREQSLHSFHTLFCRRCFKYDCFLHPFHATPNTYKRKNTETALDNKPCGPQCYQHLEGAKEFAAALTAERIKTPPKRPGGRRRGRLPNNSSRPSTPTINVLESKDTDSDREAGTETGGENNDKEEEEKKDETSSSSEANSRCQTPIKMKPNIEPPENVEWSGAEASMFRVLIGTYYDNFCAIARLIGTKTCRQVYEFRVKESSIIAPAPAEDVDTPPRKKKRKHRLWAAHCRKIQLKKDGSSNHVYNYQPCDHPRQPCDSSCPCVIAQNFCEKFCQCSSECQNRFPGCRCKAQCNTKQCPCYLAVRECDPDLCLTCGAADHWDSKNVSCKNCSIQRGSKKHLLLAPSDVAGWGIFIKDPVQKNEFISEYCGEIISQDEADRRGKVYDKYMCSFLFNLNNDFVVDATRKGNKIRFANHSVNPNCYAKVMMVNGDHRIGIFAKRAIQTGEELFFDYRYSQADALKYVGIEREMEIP

[2] = target: Histone-lysine N-methyltransferase EZH2 (Homo sapiens, UniProt O75530+Q09028+Q15022+Q15910, Y641N); experiment: Inhibition of EZH2 Y641N mutant (unknown origin) expressed in baculovirus infected SF9 cells co-expressing SUZ12/EED/RbAp48 complex using HeLa cells derived oligonucleosomes as substrate after 60 mins in presence of [3H] SAM by scintillation counting
Chain of Histone-lysine N-methyltransferase EZH2 (Homo sapiens, UniProt O75530+Q09028+Q15022+Q15910, Y641N) (Q15910 whole entry Y641N, one chain of several): as the sequence (Q15910 whole entry, one chain of several) above, with Y641N counted along it

[3] = Cytotoxicity against human KARPAS422 cells assessed as inhibition of cell proliferation after 72 hrs; type: functional, cell-based; settings: KARPAS-422, 72 h
[4] = Lipophilicity, log D of the compound at pH 7.4; settings: buffer
[5] = target: Histone-lysine N-methyltransferase EZH2 (Homo sapiens, UniProt Q15910); experiment: Inhibition of EZH2 in human KARPAS422 cells assessed as reduction in H3K27Me3 levels after 72 hrs by ELISA; type: cell-based
Chain of Histone-lysine N-methyltransferase EZH2 (Homo sapiens, UniProt Q15910) (Q15910 whole entry): as the sequence (Q15910 whole entry, one chain of several) above

MDR1 [6] = experiment: Permeability across apical to basolateral side in MDCK cells expressing MDR1; type: ADME, cell-based, Canis lupus familiaris; settings: dog, read-out: permeability
[7] = Permeability in RRCK cells; type: ADME, cell-based, Canis lupus familiaris, MDCKII-LE; settings: dog, MDCK; read-out: permeability
[8] = Intrinsic clearance in human liver microsomes at 1 uM after 45 mins in presence of NADPH by LC-MS/MS analysis; type: ADME; settings: read-out: CLH
[9] = Intrinsic clearance in mouse liver microsomes at 1 uM after 45 mins in presence of NADPH by LC-MS/MS analysis; type: ADME; settings: read-out: CLH
[10] = Kinetic solubility of the compound; type: physicochemical; settings: read-out: Kinetic_solubility
KARPAS-422 [11] = experiment: Antitumor activity against human KARPAS422 cells xenografted in Scid beige mouse assessed as tumor growth inhibition at 200 to 300 mg/kg, bid for 20 days measured for 3 weeks post last dose; type: functional, organism-based
Mus musculus [12] = experiment: In vivo inhibition of EZH2 in Scid beige mouse xenografted with human KARPAS422 cells assessed as upregulation of PRDM1 expression at 300 mg/kg, bid for 20 days measured 1 to 4 hrs post last dose on day 20 relative to control; type: functional
Mus musculus [13] = experiment: In vivo inhibition of EZH2 in Scid beige mouse xenografted with human KARPAS422 cells assessed as upregulation of TNFRSF21 expression at 200 mg/kg, bid for 20 days measured 1 to 4 hrs post last dose on day 20 relative to control; type: functional
KARPAS-422 [14] = experiment: Antitumor activity against human KARPAS422 cells xenografted in Scid beige mouse assessed as tumor stasis at 200 to 300 mg/kg, bid for 20 days measured on day 20; type: functional, organism-based
Mus musculus [15] = experiment: In vivo inhibition of EZH2 in Scid beige mouse xenografted with human KARPAS422 cells assessed as upregulation of TNFRSF21 expression at 300 mg/kg, bid for 20 days measured 1 to 4 hrs post last dose on day 20 relative to control; type: functional
Mus musculus [16] = experiment: In vivo inhibition of EZH2 in Scid beige mouse xenografted with human KARPAS422 cells assessed as upregulation of PRDM1 expression at 200 mg/kg, bid for 20 days measured 1 to 4 hrs post last dose on day 20 relative to control; type: functional
[17] = Time duration during which free plasma concentration stays at or below in vitro cell IC50 in mouse at 30 to 100 mg/kg; type: ADME, organism-based; settings: in vivo
[18] = Protein binding in mouse plasma at 30 to 300 mg/kg; type: ADME, organism-based; settings: read-out: PPB (converted)
Mus musculus [19] = experiment: In vivo inhibition of EZH2 in human KARPAS422 cells xenografted in Scid beige mouse assessed as reduction in H3K27Me3 levels at 200 mg/kg, bid for 20 days measured 1 to 4 hrs post last dose on day 20 by ELISA; type: functional; settings: KARPAS-422
[20] = Time duration during which free plasma concentration stays above in vitro cell IC90 in mouse at 300 mg/kg; type: ADME, organism-based; settings: in vivo
Mus musculus [21] = experiment: Toxicity in Scid beige mouse xenografted with human KARPAS422 cells assessed as body weight loss at 200 to 300 mg/kg, bid for 20 days measured during compound dosing; type: organism-based; settings: in vivo, 480 h
Mus musculus [22] = experiment: In vivo inhibition of EZH2 in Scid beige mouse xenografted with human KARPAS422 cells assessed as reduction in H3K27Me3 levels at 300 mg/kg, bid for 20 days measured 1 to 4 hrs post last dose on day 20 by ELISA; type: functional; settings: KARPAS-422
KARPAS-422 [23] = experiment: Antitumor activity against human KARPAS422 cells xenografted in Scid beige mouse assessed as tumor regression at 200 to 300 mg/kg, bid for 20 days measured on day 20; type: functional, organism-based
MDR1 [24] = experiment: in vitro; settings: dog, MDCK-MDR1
Description: Efflux ratio of permeability from basolateral to apical side over apical to basolateral side in MDCK cells expressing MDR1

[25] = target: T1, Histone-lysine N-methyltransferase EZH2; experiment: Binding affinity to EZH2 (unknown origin) expressed in baculovirus infected SF9 cells co-expressing SUZ12/EED/RbAp48 complex by ITC analysis

| Structure (SMILES) | IC50 [1] | IC50 [3] | logD [4] | IC50 [5] | microsomal CLint at 1 µM [8] | also measured |
| --- | --- | --- | --- | --- | --- | --- |
| Cc1cc(C)c(CN2CCc3c(Cl)cc(-c4cn[nH]c4C)c(Cl)c3C2=O)c(=O)[nH]1 | 24 nM | 1340 nM | 3.1 | 873 nM |  | IC50 [2]: 110 nM |
| Cc1cc(C)c(CN2CCc3ccc(O[C@@H]4CCOC4)c(Cl)c3C2=O)c(=O)[nH]1 |  | 512 nM | 1.5 | 796 nM | 21 µL/min/mg | Papp A→B (MDR1 [6]): 1.7 ×10⁻⁶ cm/s; Papp [7]: 12.3 ×10⁻⁶ cm/s; microsomal CLint at 1 µM [9]: 31 µL/min/mg; solubility kinetic [10]: 510 µM (≈ 205 µg/mL) |
| Cc1cc(C)c(CN2CCc3ccc(-c4c(C)noc4C)c(Cl)c3C2=O)c(=O)[nH]1 | 3.2 nM | 121 nM | 2.6 | 105 nM |  | Ki [1]: 2 nM; IC50 [2]: 8.8 nM; Ki [2]: 6.3 nM |
| COc1cccc(C(=O)NCc2c(C)cc(C)[nH]c2=O)c1O | 44000 nM |  | 1.9 |  |  |  |
| COc1ccc2c(c1Cl)C(=O)N(Cc1c(C)cc(C)[nH]c1=O)CC2 |  |  | 1.8 |  | 35 µL/min/mg |  |
| Cc1cc(C)c(CN2CCc3c(Cl)cc(-c4c(C)noc4C)c(Cl)c3C2=O)c(=O)[nH]1 |  | 25 nM | 3.1 | 15 nM | 107 µL/min/mg | TGI (KARPAS-422 [11]): Active; fold change (FC) (Mus musculus [12]): 57.9; Ki [1]: 0.7 nM; fold change (FC) (Mus musculus [13]): 99.2; Activity (KARPAS-422 [14]): Active; Papp A→B (MDR1 [6]): 5.2 ×10⁻⁶ cm/s; fold change (FC) (Mus musculus [15]): 208.9; Papp [7]: 15.7 ×10⁻⁶ cm/s; fold change (FC) (Mus musculus [16]): 31.6; Time [17]: 6 h; fraction unbound [18]: 0.85; inhibition in vivo at 200 mg/kg (Mus musculus [19]): 55.5%; Time [20]: <= 6 hr; Activity (Mus musculus [21]): < 10%; microsomal CLint at 1 µM [9]: 531 µL/min/mg; inhibition in vivo at 300 mg/kg (Mus musculus [22]): 66.4%; Activity (KARPAS-422 [23]): Active; efflux ratio (MDR1 [24]): 4.6; solubility kinetic [10]: 93.5 µM (≈ 41.7 µg/mL) |
| Cc1cc(C)c(CN2CCc3c(Cl)cc(O[C@@H]4CCOC4)c(Cl)c3C2=O)c(=O)[nH]1 | 5.6 nM | 155 nM | 2.5 | 170 nM | 21 µL/min/mg | IC50 [2]: 18 nM; Papp A→B (MDR1 [6]): 4.5 ×10⁻⁶ cm/s; Papp [7]: 14.7 ×10⁻⁶ cm/s; microsomal CLint at 1 µM [9]: 163 µL/min/mg; efflux ratio (MDR1 [24]): 4.7; solubility kinetic [10]: 26 µM (≈ 11.4 µg/mL) |
| Cc1cc(C)c(CNC(=O)c2cccc(OC(C)C)c2C)c(=O)[nH]1 | 1400 nM |  | 2.1 |  |  | Kd [25]: 252 nM |
| Cc1cc(C)c(CN2CCc3ccc(OC(C)C)c(Cl)c3C2=O)c(=O)[nH]1 |  | 1160 nM | 2.7 | 1190 nM | 53 to 53.8 µL/min/mg | Papp A→B (MDR1 [6]): 7.9 ×10⁻⁶ cm/s; Papp [7]: 19.6 ×10⁻⁶ cm/s; solubility kinetic [10]: 19.6 µM (≈ 7.35 µg/mL) |
| CCOc1ccc2c(c1Cl)C(=O)N(Cc1c(C)cc(C)[nH]c1=O)CC2 |  |  | 2.2 |  | 37 µL/min/mg |  |
| Cc1cc(C)c(CN2CCc3ccc(OC(C)C)cc3C2=O)c(=O)[nH]1 |  |  | 2.5 |  | 19 µL/min/mg |  |
| COc1cccc(C(=O)NCc2c(C)cc(C)[nH]c2=O)c1OC | > 140000 nM |  | 1.7 |  |  |  |
| COc1ccc2c(c1Cl)C(=O)N(Cc1c(C)cc(C)[nH]c1=O)CCO2 | 650 nM |  | 1.3 |  | 40 µL/min/mg |  |
| Cc1cc(C)c(CN2CCc3c(C)cc(O[C@@H]4CCOC4)c(Cl)c3C2=O)c(=O)[nH]1 | 18 nM | 406 nM | 2.1 | 290 nM |  | IC50 [2]: 61 nM |
| Cc1cc(C)c(CN2CCc3c(Cl)cc(-c4cn[nH]c4)c(Cl)c3C2=O)c(=O)[nH]1 | 51 nM | 1580 nM | 3 | 1730 nM |  | IC50 [2]: 270 to 271 nM |
| COc1cccc(C(=O)NCc2c(C)cc(C)[nH]c2=O)c1C | 5700 nM |  | 1.5 |  |  |  |
| Cc1cc(C)c(CN2CCc3c(Cl)cc(-c4c(C)nn(C)c4C)c(Cl)c3C2=O)c(=O)[nH]1 | 1500 nM | 12800 nM | 3.4 | 15300 nM |  | IC50 [2]: 6000 nM |
| Cc1cc(C)c(CN2CCc3c(F)cc(O[C@@H]4CCOC4)c(Cl)c3C2=O)c(=O)[nH]1 | 56 nM | 1030 nM | 2.1 | 994 nM |  | IC50 [2]: 260 nM |
| Cc1cc(C)c(CNC(=O)c2cccc(OC(C)C)c2Cl)c(=O)[nH]1 | 1300 nM |  | 2 |  |  |  |
| Cc1cc(C)c(CN2CCc3c(Cl)cc(-c4c(C)n[nH]c4C)c(Cl)c3C2=O)c(=O)[nH]1 | 16 nM | 959 nM | 3.4 | 502 nM |  | IC50 [2]: 82 nM |
| COc1ccc2c(c1Cl)C(=O)N(Cc1c(C)cc(C)[nH]c1=O)CCC2 | 150 nM |  | 1.7 |  | 82 µL/min/mg |  |
| COc1cccc(C(=O)NCc2c(C)cc(C)[nH]c2=O)c1 | > 150000 nM |  | 1.7 |  |  |  |
| CCOc1cccc(C(=O)NCc2c(C)cc(C)[nH]c2=O)c1C | 2000 nM |  | 2.1 |  |  |  |
| COc1cccc(C(=O)NCc2c(C)cc(C)[nH]c2=O)c1Cl | 7200 nM |  | 1.2 |  | 8 µL/min/mg |  |
| Cc1cc(C)c(CN2CCc3ccc(OC(C)C)c(C)c3C2=O)c(=O)[nH]1 | 160 nM |  |  |  | 102 µL/min/mg | Kd [25]: 37.4 nM |
| COc1cccc(C(=O)NCc2c(C)cc(C)[nH]c2=O)c1F | > 150000 nM |  | 1.4 |  |  |  |
| Cc1cc(C)c(CNC(=O)c2ccccc2C)c(=O)[nH]1 | > 200000 nM |  |  |  |  |  |
